Measurements: patent publication US5556858A, “Cis-2-[(4-heteroaryl-1-piperazinyl)alkyl] hexahydro-1H-isoindole-1,3 (2H)-diones and related compounds and their therapeutic utility” (Hoechst-Roussel Pharmaceuticals, Inc., priority 1995, dated 1996)
Where a name gives a salt, the structure may show the parent alone.

System: apomorphine climbing
Experiment: climbing mice assay (antipsychotic activity)
Format: in vivo, mice (CK-1 male)
Conditions: Mus musculus; ip; apomorphine 1.5 mg/kg subcutaneously; climbing score vs control
Description: Subject […] male mice (23-27 grams) are group-housed under standard laboratory conditions. The mice are individually placed in wire mesh stick cages (4"×10") and are allowed one hour for adaption and exploration of the new environment.
For evaluation of climbing, 3 readings are taken at 10, 20, and 30 minutes-after apomorphine administration according to the following scale: […]
Mice consistently climbing before the injection of apomorphine are discarded.
With full-developed apomorphine climbing, the animals are hanging on to the cage walls, rather motionless, over long periods of time. By contrast, climbs due to mere motor stimulation usually only last a few seconds.
The climbing scores are individually totaled (maximal score: 6 per mouse over 3 readings) and the total score of the control group (vehicle intraperitoneally-apomorphine subcutaneously) is set to 100%.

Compound	ED50 [mg/kg]
O=C(CN1CCC(c2noc3cc(F)ccc23)CC1)N1CCc2ccccc2C1 [1-(1,2,3,4-Tetrahydro-1H-isoquinolin-2-yl)-2-[4-(6-fluoro-1,2-benzosoxazol-3-yl)-1-piperidinyl]-ethanone hydrochloride ethanolate]	6.25
Cl.Cl.NCCCN1CCC(c2noc3cc(F)ccc23)CC1 [1-(3-Aminopropyl)-4-(6-fluoro-1,2-benzisoxazol-3-yl)piperidine dihydrochloride]	22.6
CC(=O)c1ccc(CCCCN2CCC(c3noc4cc(F)ccc34)CC2)cc1 [1-[4-(4'-Acetophenyl)butyl]-4-(6-fluoro-1,2-benzisoxazol-3-yl)piperidine]	0.34
COc1cc(C(C)=O)ccc1OCCCN1CCC(c2nsc3cc(F)ccc23)CC1.Cl [1-[4-[3-[4-(6-Fluoro-1,2-benzisothiazol-3-yl)-1-piperidinyl]propoxy]-3-methoxy-phenyl]ethanone hydrochloride]	0.16
COc1cc(C(C)=O)ccc1OCCCCN1CCC(c2noc3ccccc23)CC1 [1-[4-[4-[4-(1,2-Benzisoxazol-3-yl)-1-piperidinyl]butoxy]-3-methoxyphenyl]ethanone]	1.6
COc1cc(C(C)=O)ccc1OCCCCN1CCC(c2noc3cc(F)ccc23)CC1 [1-[4-[4-[4-(6-Fluoro-1,2-benzisoxazol-3-yl)-1-piperidinyl]butoxy]-3-methoxyphenyl]ethanone]	0.68
C=C1c2ccccc2C(=O)N1CCN1CCC(c2noc3cc(F)ccc23)CC1.Cl [2,3-Dihydro-2-[2-[4-(6-fluoro-1,2-benzisoxazol-3-yl)-1-piperidinyl]ethyl]-3-methylene-1H-isoindol-1-one hydrochloride]	0.64
O=C1c2ccccc2CN1CCN1CCC(c2noc3cc(F)ccc23)CC1 [2,3-dihydro-2-[2-[4-(6-Fluoro-1,2-benzisoxazol-3-yl)-1-piperidinyl]ethyl]-1H-isoindol-1-one]	1.9
CC1c2ccccc2C(=O)N1CCN1CCC(c2noc3cc(F)ccc23)CC1 (stereo not drawn) [2-[2-[4-(6-Fluoro-1,2-benzisoxazol-3-yl)-1-piperidinylethyl]-2,3-dihydro-3-methyl-1H-isoindol-1-one hydrochloride]	1.17
O=C1c2ccccc2C(O)N1CCN1CCN(c2n[nH]c3cc(F)ccc23)CC1 (stereo not drawn) [2-[2-[4-(6-Fluoro-1H-indazol-3-yl)-1-piperazinyl]ethyl-2,3-dihydro-3-hydroxy-1H-isoindol-1-one hemifumarate]	2.2
O=C(CN1CCC(c2noc3cc(F)ccc23)CC1)N1Cc2ccccc2C1.O=C(O)/C=C/C(=O)O [2-[4-(6-Fluoro-1,2-benzisoxazol-3-yl)-1-piperidinyl]-1-(2,3-dihydro-1H-isoindol-2-yl)ethanone fumarate]	2.33
Fc1ccc2c(C3CCN(CCC4COc5ccccc5O4)CC3)noc2c1 (stereo not drawn) [2-[4-(6-fluoro-1,2-benzisoxazol-3-yl)-1-piperidinyl]-ethyl]-1,4-benzodioxan]	0.29
Cc1nc2ccccc2c(=O)n1CCN1CCC(c2noc3cc(F)ccc23)CC1 [3-[2-[4-(6-Fluoro-1,2-benzisoxazol-3-yl)-1-piperidinyl]ethyl]-2-methyl-3H-quinazolin-4-one]	0.61
Fc1ccc2c(c1)CN(CCN1CCN(c3n[nH]c4ccccc34)CC1)C2.O=C(O)/C=C\C(=O)O.O=C(O)/C=C\C(=O)O [4-(1H-indazol-3-yl)-1-[2-(2,3-dihydro-5-fluoro-1H-isoindol-2-yl)ethyl]piperazine dimaleate]	1.32
Cl.Cl.Fc1ccc2c(C3CCN(CCN4Cc5ccccc5C4)CC3)noc2c1 [4-(6-Fluoro-1,2-benzisoxazol-3-yl)-1-[2-(2,3-dihydro-1H-isoindol-2-yl)ethyl]-piperidine dihydrochloride]	0.36
Cc1cccc2c1CN(CCN1CCN(c3n[nH]c4cc(F)ccc34)CC1)C2 [4-(6-Fluoro-1H-indazol-3,yl)-1-[2-(2.3-dihydro-4-methyl-1H-isoindol-2-yl)ethyl]piperazine difumarate]	0.35
Fc1ccc2c(N3CCN(CCN4Cc5ccccc5C4)CC3)n[nH]c2c1.O=C(O)/C=C\C(=O)O.O=C(O)/C=C\C(=O)O [4-(6-Fluoro-1H-indazol-3-yl)-1-[2-(2,3-dihydro-1H-isoindol-2-yl)-ethyl]piperazine dimaleate]	0.25
Fc1ccc2c(c1)CN(CCN1CCN(c3n[nH]c4cc(F)ccc34)CC1)C2.O=C(O)/C=C\C(=O)O.O=C(O)/C=C\C(=O)O [4-(6-Fluoro-1H-indazol-3-yl)-1-[2-(5-fluoro-2,3-dihydro-1H-isoindol-2-yl)-ethyl]piperazine dimaleate]	0.16
Fc1ccc2c(c1)CN(CCN1CCC(c3n[nH]c4cc(F)ccc34)CC1)C2.O=C(O)/C=C\C(=O)O.O=C(O)/C=C\C(=O)O [4-(6-Fluoro-1H-indazol-3-yl)-1-[2-(5-fluoro-2,3-dihydro-1H-isoindol-2-yl)ethyl]piperidine dimaleate]	0.27

Compound	ED50 [mg/kg]
Fc1ccc2c(N3CCN(CCCN4Cc5ccccc5C4)CC3)n[nH]c2c1 [4-(6-Fluoro-1H-indazol-3-yl)-1-[3-(2.3-dihydro-1H-isoindol-2-yl)propyl]-piperazine dimaleate]	0.46
Cc1ccc2c(c1)CN(CCN1CCN(c3n[nH]c4cc(F)ccc34)CC1)C2 [4-(Fluoro-1H-indazol-3-yl)-1-[2-(2,3-dihydro-5-methyl-1H-isoindol-2-yl)-ethyl]piperazine difumarate]	0.17
CCCCCCCCCC(=O)OCCCCN1CCC(c2noc3cc(F)ccc23)CC1.O=C(O)/C=C/C(=O)O [4-[4-(6-Fluoro-1,2-benzisoxazol-3-yl)-1-piperidinyl]butyl decanoate fumarate]	3.31
OCCCN1CCC(c2noc3cc(F)ccc23)CC1 [6-Fluoro-3-[1-(3-hydroxypropyl)-4-piperidinyl]-1,2-benzisoxazole]	4.1
Fc1ccc2c(C3CCN(CCCOc4cccc5cnccc45)CC3)noc2c1 [6-Fluoro-3-[1-[3-[(isoquinol-5-yl)oxylpropyl]-4-piperidinyl]-1,2-benzisoxazole sesquifumarate]	0.172
COc1cc(C(C)=O)ccc1OC/C=C\CN1CCC(c2noc3cc(F)ccc23)CC1 [(Z)-1-[4-[[4-[4-(6-fluoro-1,2-benzisoxazol-3-yl)-1-piperidinyl]-2-butenyl]oxy]-3-methoxy-phenyl]ethanone]	0.61
Fc1ccc2c(C3CCN(CCN4CCc5ccccc5C4)CC3)noc2c1 [N-12-[4-(6-Fluoro-1,2-benzisoxazol-3-yl)-1-piperidinyl]ethyl-1,2,3,4-tetrahydroisoquinoline difumarate]	0.23
Cl.O=C1c2ccccc2C(=O)N1CCN1CCC(c2nsc3cc(F)ccc23)CC1 [N-[2-[4-(6-Fluoro-1,2-benzisothiazol-3-yl)-1-piperidinyl]ethyl]phthalimide hydrochloride]	0.38
Fc1ccc2c(C3CCN(CCN4CCCc5ccccc54)CC3)noc2c1.O=C(O)/C=C/C(=O)O [N-[2-[4-(6-Fluoro-1,2-benzisoxazol-3-yl)-1-piperidinyl]ethyl]-1,2,3,4-tetrahydroquinoline fumarate]	1.19
O=C1c2c(F)ccc(F)c2C(=O)N1CCN1CCC(c2noc3cc(F)ccc23)CC1 [N-[2-[4-(6-Fluoro-1,2-benzisoxazol-3-yl)-1-piperidinyl]ethyl]-3,6-difluorophthalimide]	2.9
Nc1ccc2c(c1)C(=O)N(CCN1CCC(c3noc4cc(F)ccc34)CC1)C2=O.O=C(O)/C=C/C(=O)O [N-[2-[4-(6-Fluoro-1,2-benzisoxazol-3-yl)-1-piperidinyl]ethyl]-4-aminophthalimide fumarate]	0.097
Cl.O=C1c2ccc(O)cc2C(=O)N1CCN1CCC(c2noc3cc(F)ccc23)CC1 [N-[2-[4-(6-Fluoro-1,2-benzisoxazol-3-yl)-1-piperidinyl]ethyl]-4-hydroxyphthalimide hydrochloride]	1.6
Cl.O=C1c2ccccc2C(=O)N1CCN1CCC(c2noc3cc(F)ccc23)CC1 [N-[2-[4-(6-Fluoro-1,2-benzisoxazol-3-yl)-1-piperidinyl]ethyl]phthalimide h ydrochloride]	0.48
O=C1c2ccccc2C(=O)N1CCN1CCC(c2noc3cc(F)ccc23)CC1 [N-[2-[4-(6-Fluoro-1,2-benzisoxazol-3-yl)-1-piperidinyl]ethyl]phthalimide]	5
Cc1ccc2c(c1)C(=O)N(CCN1CCN(c3n[nH]c4cc(F)ccc34)CC1)C2=O [N-[2-[4-(6-Fluoro-1H-indazol-3-yl)-1-piperazinyl]ethyl]-4-methylphthalimidedihydrochloride]	0.37
Fc1ccc2c(C3CCN(CCN4CCc5ccccc5C4)CC3)n[nH]c2c1.O=C(O)/C=C\C(=O)O.O=C(O)/C=C\C(=O)O [N-[2-[4-(6-Fluoro-1H-indazol-3-yl)-1-piperidinyl]ethyl]-1,2,3,4-tetrahydroisoquinoline dimaleate]	0.44
Cl.O=C1c2ccccc2C(=O)N1CCN1CCC(c2n[nH]c3cc(F)ccc23)CC1 [N-[2-[4-(6-Fluoro-1H-indazol-3-yl)-1-piperidinyl]ethyl]phthalimide hydrochloride]	0.8
O=C1c2ccccc2C(=O)N1CCN1CCN(c2n[nH]c3cc(F)ccc23)CC1 [N-[2-[4-(6-Fluoro-1H-indazol-3.-yl)-1-piperazinyl]ethyl]phthalimide]	1.2
COc1cccc2c1C(=O)N(CCN1CCC(c3noc4cc(F)ccc34)CC1)C2=O [N-[2-[4-(6-fluoro-1,2-benzisoxazol-3-yl)-1-piperidinyl]ethyl]-3-methoxyphthalimide]	0.16

Same assay, conditions: ip; apomorphine 1.5 mg/kg subcutaneously; climbing score vs control

Compound	CLIMBING MOUSE ASSAY ED50 [mg/kg]
CC(CCN1C(=O)c2ccccc2C1=O)N1CCC(c2noc3cc(F)ccc23)CC1.Cl (stereo not drawn) [N,[3-[4-(6-Fluoro-1,2-benzisoxazol-3-yl)-1-piperidinyl]butyl]phthalimide hydrochloride]	0.7
